Reference: patent EP0031104A1, “Thiazolidine compounds, processes for their preparation and pharmaceutical compositions containing them” (SANTEN PHARMACEUTICAL CO., LTD., priority 1979, dated 1981)
pIC50: −log10 of the molar value. Like-named read-outs stand apart in the source and are kept apart here.

Tests used:
[1] = biological target: T1, aldose reductase (Rattus norvegicus, UniProt P07943); test: Aldose reductase inhibition (optical density at 340 nm, Kinoshita's method); assay type: biochemical; conditions: for IC50: aldose reductase purified from rat lenses, pH 6.2, DL glyceraldehyde, NADPH, read-out: IC50(M) Molar concentration of a compound producing 50% inhibition of aldose reductase
T1 construct: Aldose reductase is purified from rat lenses; from tissue; host or cells: rat lens
Procedure: Aldose reductase is purified from rat lenses according to the method of Hoyman et al. [J. Biol. Chem., 240, 877 (1965)]. Action of the compounds (I) of this invention is evaluated by measurement of optical density according to the J.H. Kinoshita's method [Invest.

[2] = Acute toxicity test; conditions: mouse, in vivo, iv
Procedure: The male ddy-std. strain mice (4 weeks of age, weighing 19-21g) were placed in a breeding room of constant temperature and humidity (23+1°C, 55+5%) and fed freely pellet diet (CE-2, Clea Japan, Inc.) and water ad. libitum for a week. The mice showing the normal growth were selected for the experiment.
Test compounds are dissolved in distilled water and administered (i.v.) in a dose of 0.5ml/20g body weight.

Structure (SMILES) | IC50 [1] [M] | pIC50 [1] | LD50 ([2]; male ddy-std. strain mice, dissolved in distilled water) [mg/kg] | LD50 [2] [mg/kg]
O=C(O)CCCCCCCC(=O)N1C(c2cccc([N+](=O)[O-])c2)SC[C@H]1C(=O)O (stereo partly drawn) [compound 22] | 8.2e-10 |  |  | 
O=C(O)[C@@H]1CSC(c2cccc([N+](=O)[O-])c2)N1C(=O)CCCCCCCC(=O)N1C(c2cccc([N+](=O)[O-])c2)SC[C@H]1C(=O)O (stereo partly drawn) [compound 47, (4R,4'R)-3,3'-(nonanedioyl)bis-[2-(3-nitrophenyl)-4-thiazolidinecarboxylic acid]] |  | 9.80 | 1000 to 1500 | 
N#Cc1cccc(C2SC[C@@H](C(=O)O)N2C(=O)CCCCCCCCC(=O)N2C(c3cccc(C#N)c3)SC[C@H]2C(=O)O)c1 (stereo partly drawn) [compound 56] | 1.7e-09 |  |  | 1000 to 1500
O=C(O)[C@@H]1CSC(c2cccc([N+](=O)[O-])c2)N1C(=O)CCCCCCCCC(=O)N1C(c2cccc([N+](=O)[O-])c2)SC[C@H]1C(=O)O (stereo partly drawn) [compound 57] |  | 8.27 |  | 
